Measurements published in patent US20240327381A1, “Compounds and Compositions for Selective Degradation of Engineered Proteins” (Celgene Corporation, priority 2023, published 2024).

Columns and labels:
[1] = molecular target: T1, IKZF1 ZNF2_ZNF3 Q1F degron-tagged CD19 CAR (Homo sapiens, UniProt Q13422, Q146F); test: Degradation of Q1F degron-tagged CD19 CAR in Jurkat cells (flow cytometry of CAR levels); assay type: cell-based; conditions: for DC50: Jurkat cells expressing CD19 CAR tagged with IKZF1 ZNF2_ZNF3 Q1F, 18 hours at 37° C., CAR levels normalized to untreated cells, read-out: Q1F Jurkat IC50; for Dmax: Ymax is the % protein degraded, Jurkat cells expressing Q1F degron-tagged CD19 CAR, 18 hours, read-out: Q1F Jurkat-YMax
T1 construct: ZNF2_ZNF3 Q1F degron (GERPFFCNQCGASFTQKGNLLRHIKLHSGEKPFKCHLCNYACRRRDALTGHLRTHS); fused on or other part: anti-CD19 scFv, CD28 transmembrane domain, 4-1BB costimulatory domain, CD3 zeta signaling domain (the CAR that carries the degron), and Nluc
Summary of the method: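 Jurkat cells were lentivirally transduced with an anti-CD19 scFv/CD28 TM/4-1BB/CD3ζ CAR tagged with an IKZF1 ZNF2_ZNF3 Q1F degron–Nluc, then treated with compound titrations for 18 h at 37 °C. CAR surface levels were stained (20 min, 4 °C), read by flow cytometry and normalised to untreated cells. EC50 came from a four-parameter logistic fit; Ymin is the minimum % CAR remaining.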

Helios = molecular target: T2, Helios (Homo sapiens, UniProt Q9UKS7); test: Helios degradation in Jurkat/Helios/HiBit cells (Nano-Glo luminescence); assay type: cell-based; conditions: 18 hr, read-out: Helios Jurkat Hibit IC50
T2 construct: endogenous in cells; host or cells: Jurkat cells, CRISPR/Cas9 knock-in of HiBit at the IKZF2 locus
Summary of the method: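 Jurkat cells carrying CRISPR-knocked-in C-terminal HiBit-tagged endogenous IKZF2 were treated with compound in DMEM/10% FCS (10,000 cells/well) for 18 h at 37 °C. HiBit signal was read by Nano-Glo luminescence after 30 min at RT. EC50 for degradation came from a four-parameter logistic fit, with Ymax as % protein degraded.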

T2 sequence (Q9UKS7 whole entry): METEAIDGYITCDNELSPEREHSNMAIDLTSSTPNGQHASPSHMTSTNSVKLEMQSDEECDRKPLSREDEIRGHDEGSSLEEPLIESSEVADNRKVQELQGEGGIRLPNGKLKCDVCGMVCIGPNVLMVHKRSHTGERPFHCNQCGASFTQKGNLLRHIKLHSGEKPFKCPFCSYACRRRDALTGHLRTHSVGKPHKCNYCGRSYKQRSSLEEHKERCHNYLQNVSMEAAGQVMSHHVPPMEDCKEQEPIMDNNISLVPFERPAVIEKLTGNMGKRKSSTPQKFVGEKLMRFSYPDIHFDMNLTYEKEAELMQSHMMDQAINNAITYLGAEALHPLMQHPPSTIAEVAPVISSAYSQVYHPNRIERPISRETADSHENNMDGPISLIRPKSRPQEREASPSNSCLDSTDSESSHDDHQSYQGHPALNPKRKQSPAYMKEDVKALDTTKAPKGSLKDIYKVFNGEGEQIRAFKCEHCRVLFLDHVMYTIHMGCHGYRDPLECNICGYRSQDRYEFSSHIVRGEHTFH
T2 sequence (Q96SW2 whole entry, further chain): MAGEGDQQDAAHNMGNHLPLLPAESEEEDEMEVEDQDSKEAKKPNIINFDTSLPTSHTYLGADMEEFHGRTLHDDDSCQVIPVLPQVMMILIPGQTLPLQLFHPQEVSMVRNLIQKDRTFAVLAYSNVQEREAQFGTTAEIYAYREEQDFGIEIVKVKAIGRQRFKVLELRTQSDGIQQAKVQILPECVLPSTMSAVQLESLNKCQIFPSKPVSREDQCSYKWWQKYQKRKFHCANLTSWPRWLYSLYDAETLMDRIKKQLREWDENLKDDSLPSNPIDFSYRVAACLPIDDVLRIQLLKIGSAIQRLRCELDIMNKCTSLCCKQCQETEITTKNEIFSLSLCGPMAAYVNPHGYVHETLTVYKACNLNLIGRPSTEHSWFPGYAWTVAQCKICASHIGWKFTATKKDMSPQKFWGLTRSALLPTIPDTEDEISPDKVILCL
T2 sequence (Q16531 whole entry partner): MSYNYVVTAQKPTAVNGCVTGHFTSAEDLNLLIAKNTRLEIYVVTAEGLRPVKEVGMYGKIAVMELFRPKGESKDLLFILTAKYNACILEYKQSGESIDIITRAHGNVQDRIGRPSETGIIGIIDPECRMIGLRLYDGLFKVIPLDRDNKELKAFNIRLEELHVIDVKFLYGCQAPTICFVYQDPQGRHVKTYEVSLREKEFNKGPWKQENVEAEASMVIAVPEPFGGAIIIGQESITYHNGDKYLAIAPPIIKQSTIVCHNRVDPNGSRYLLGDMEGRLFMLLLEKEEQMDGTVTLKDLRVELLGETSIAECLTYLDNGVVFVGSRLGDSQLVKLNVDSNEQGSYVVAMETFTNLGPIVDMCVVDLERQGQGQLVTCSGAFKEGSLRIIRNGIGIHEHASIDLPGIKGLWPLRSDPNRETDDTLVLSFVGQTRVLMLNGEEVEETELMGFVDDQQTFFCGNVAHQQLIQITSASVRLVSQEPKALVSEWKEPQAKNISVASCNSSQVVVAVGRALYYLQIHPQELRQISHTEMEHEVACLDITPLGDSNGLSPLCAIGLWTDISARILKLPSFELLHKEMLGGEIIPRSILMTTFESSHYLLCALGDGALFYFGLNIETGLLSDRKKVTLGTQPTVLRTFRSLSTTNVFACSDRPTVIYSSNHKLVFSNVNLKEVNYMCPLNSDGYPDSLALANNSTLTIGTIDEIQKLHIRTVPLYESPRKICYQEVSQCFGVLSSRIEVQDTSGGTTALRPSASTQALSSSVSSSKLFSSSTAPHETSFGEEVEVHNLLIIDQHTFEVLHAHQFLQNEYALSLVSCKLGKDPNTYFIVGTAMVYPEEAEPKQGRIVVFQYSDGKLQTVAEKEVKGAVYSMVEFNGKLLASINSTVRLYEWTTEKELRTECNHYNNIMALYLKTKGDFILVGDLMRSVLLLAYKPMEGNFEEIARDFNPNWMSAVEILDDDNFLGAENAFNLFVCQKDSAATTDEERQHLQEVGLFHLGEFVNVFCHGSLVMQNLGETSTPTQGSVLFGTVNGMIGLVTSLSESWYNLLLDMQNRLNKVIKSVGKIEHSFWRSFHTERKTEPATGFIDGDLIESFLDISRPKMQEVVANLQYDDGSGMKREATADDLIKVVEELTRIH
T1 sequence (Q13422 whole entry Q146F, the tested form may be a part): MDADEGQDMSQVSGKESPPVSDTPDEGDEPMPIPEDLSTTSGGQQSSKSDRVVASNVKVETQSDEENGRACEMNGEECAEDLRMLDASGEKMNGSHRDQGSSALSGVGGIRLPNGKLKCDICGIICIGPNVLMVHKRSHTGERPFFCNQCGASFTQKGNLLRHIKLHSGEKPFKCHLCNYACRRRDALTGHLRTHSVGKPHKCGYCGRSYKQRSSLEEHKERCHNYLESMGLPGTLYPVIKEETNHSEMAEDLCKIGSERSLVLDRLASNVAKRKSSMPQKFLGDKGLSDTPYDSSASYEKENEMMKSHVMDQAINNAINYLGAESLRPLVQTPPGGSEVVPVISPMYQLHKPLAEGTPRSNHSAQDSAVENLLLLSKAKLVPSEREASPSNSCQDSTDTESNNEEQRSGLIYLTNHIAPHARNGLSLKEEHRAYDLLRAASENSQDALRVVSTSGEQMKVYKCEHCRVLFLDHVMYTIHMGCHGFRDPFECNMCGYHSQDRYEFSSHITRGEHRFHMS

How did the DC50 [1] turn out when `O=C1CCC(N2Cc3c(cc(F)c(-c4ccc5c(n4)NCCC5)c3F)C2=O)C(=O)N1` (stereo not drawn) [Compound 94, 3-(4,6-difluoro-1-oxo-5-(5,6,7,8-tetrahydro-1,8-naphthyridin-2-yl)isoindolin-2-yl) piperidine-2,6-dione] was run?
The DC50 was 655 nM.

What about the Dmax [1] of the same molecule?
The Dmax was 60.9%.

What about the DC50 (Helios) of the same molecule?
The DC50 was at least 10000 nM.

For `CC(C)CN1CCC(c2c(F)cc3c(c2F)CN(C2CCC(=O)NC2=O)C3=O)CC1` (stereo not drawn) [Compound 95, 3-(4,6-difluoro-5-(1-isobutylpiperidin-4-yl)-1-oxoisoindolin-2-yl)piperidine-2,6-dione], which DC50 [1] is on record?
The DC50 was 10.5 nM.

And the Dmax [1]?
Its Dmax is 84.5%.

And the DC50 (Helios)?
The DC50 was at least 10000 nM.

Which DC50 [1] does the source give for `O=C1CCC(N2Cc3c(cc(F)c(C4CCN(Cc5ccc(Cl)cc5)CC4)c3F)C2=O)C(=O)N1` (stereo not drawn) [Compound 96, 3-(5-(1-(4-chlorobenzyl)piperidin-4-yl)-4,6-difluoro-1-oxoisoindolin-2-yl)piperidine-2,6-dione] here?
The DC50 was 4.17 nM.

What about the Dmax [1] of the same molecule?
The Dmax was 89.7%.

And the DC50 (Helios)?
The DC50 was at least 10000 nM.

With `O=C1CCC(N2Cc3c(cc(F)c(C4CCN(C5CCCCC5)CC4)c3F)C2=O)C(=O)N1` (stereo not drawn) [Compound 97, 3-(5-(1-cyclohexylpiperidin-4-yl)-4,6-difluoro-1-oxoisoindolin-2-yl)piperidine-2,6-dione] as the molecule, how does the DC50 [1] read?
Its DC50 is 3.88 nM.

What about the Dmax [1] of the same molecule?
Its Dmax is 88.3%.

And the DC50 (Helios)?
Its DC50 is at least 10000 nM.

How did the DC50 [1] turn out when `CS(=O)(=O)NCCN1CCC(c2c(F)cc3c(c2F)CN(C2CCC(=O)NC2=O)C3=O)CC1` (stereo not drawn) [Compound 98, N-(2-(4-(2-(2,6-dioxopiperidin-3-yl)-4,6-difluoro-1-oxoisoindolin-5-yl)piperidin-1-yl)ethyl)methanesulfonamide] was run?
The DC50 was 39.8 nM.

What about the Dmax [1] of the same molecule?
Its Dmax is 76.9%.

What about the DC50 (Helios) of the same molecule?
Its DC50 is at least 10000 nM.

With `O=C1CCC(N2Cc3c(cc(F)c(C4CCN(Cc5nc(-c6ccccc6)no5)CC4)c3F)C2=O)C(=O)N1` (stereo not drawn) [Compound 99, 3-(4,6-difluoro-1-oxo-5-(1-((3-phenyl-1,2,4-oxadiazol-5-yl)methyl)piperidin-4-yl)isoindolin-2-yl)piperidine-2,6-dione] as the molecule, how does the DC50 [1] read?
Its DC50 is 369 nM.

What about the Dmax [1] of the same molecule?
The Dmax was 58.6%.

What about the DC50 (Helios) of the same molecule?
The DC50 was at least 10000 nM.

What does the source list for `COCCOCCN1CCC(c2c(F)cc3c(c2F)CN(C2CCC(=O)NC2=O)C3=O)CC1` (stereo not drawn) [Compound 100, 3-(4,6-difluoro-5-(1-(2-(2-methoxyethoxy)ethyl)piperidin-4-yl)-1-oxoisoindolin-2-yl)piperidine-2,6-dione]?
DC50 [1]: 22.6 nM; Dmax [1]: 75.5%; DC50 (Helios): ≥ 10000 nM

What does the source list for `CC(=O)Nc1ccc(CN2CCC(c3c(F)cc4c(c3F)CN(C3CCC(=O)NC3=O)C4=O)CC2)cc1` (stereo not drawn) [Compound 101, N-(4-((4-(2-(2,6-dioxopiperidin-3-yl)-4,6-difluoro-1-oxoisoindolin-5-yl)piperidin-1-yl)methyl)phenyl)acetamide]?
DC50 [1]: 0.473 nM; Dmax [1]: 86.9%; DC50 (Helios): ≥ 10000 nM

With `Cn1nccc1CN1CCC(c2c(F)cc3c(c2F)CN(C2CCC(=O)NC2=O)C3=O)CC1` (stereo not drawn) [Compound 102, 3-(4,6-difluoro-5-(1-((1-methyl-1H-pyrazol-5-yl)methyl)piperidin-4-yl)-1-oxoisoindolin-2-yl)piperidine-2,6-dione] as the molecule, how does the DC50 [1] read?
Its DC50 is 0.283 nM.

What about the Dmax [1] of the same molecule?
Its Dmax is 84.3%.

What about the DC50 (Helios) of the same molecule?
The DC50 was at least 10000 nM.

`Cc1cc(CN2CCC(c3c(F)cc4c(c3F)CN(C3CCC(=O)NC3=O)C4=O)CC2)nn1C` (stereo not drawn) [Compound 103, 3-(5-(1-((1,5-dimethyl-1H-pyrazol-3-yl)methyl)piperidin-4-yl)-4,6-difluoro-1-oxoisoindolin-2-yl)piperidine-2,6-dione] was tested. Which DC50 [1] did it give?
The DC50 was 1.96 nM.

What about the Dmax [1] of the same molecule?
Its Dmax is 84.7%.

What about the DC50 (Helios) of the same molecule?
Its DC50 is at least 10000 nM.

With `O=C1CCC(N2Cc3c(cc(F)c(C4CCN(Cc5nc(C6CC6)cs5)CC4)c3F)C2=O)C(=O)N1` (stereo not drawn) [Compound 104, 3-(5-(1-((4-cyclopropylthiazol-2-yl)methyl)piperidin-4-yl)-4,6-difluoro-1-oxoisoindolin-2-yl)piperidine-2,6-dione] as the molecule, how does the DC50 [1] read?
Its DC50 is 30.9 nM.

And the Dmax [1]?
Its Dmax is 83.6%.

What about the DC50 (Helios) of the same molecule?
The DC50 was at least 10000 nM.

What does the source list for `O=C1CCC(N2Cc3c(cc(F)c(C4CCN(Cc5nc(C(F)(F)F)cs5)CC4)c3F)C2=O)C(=O)N1` (stereo not drawn) [Compound 105, 3-(4,6-difluoro-1-oxo-5-(1-((4-(trifluoromethyl)thiazol-2-yl)methyl)piperidin-4-yl)isoindolin-2-yl)piperidine-2,6-dione]?
DC50 [1]: 83.5 nM; Dmax [1]: 75.3%; DC50 (Helios): ≥ 10000 nM

Which results are given for `Cn1cnc2ccc(CN3CCC(c4c(F)cc5c(c4F)CN(C4CCC(=O)NC4=O)C5=O)CC3)cc21` (stereo not drawn) [Compound 106, 3-(4,6-difluoro-5-(1-((1-methyl-1H-benzo[d]imidazol-6-yl)methyl)piperidin-4-yl)-1-oxoisoindolin-2-yl)piperidine-2,6-dione]?
DC50 [1]: 0.698 nM; Dmax [1]: 91.8%; DC50 (Helios): ≥ 10000 nM

`O=C1CCC(N2Cc3c(cc(F)c(C4CCN(Cc5cccnc5)CC4)c3F)C2=O)C(=O)N1` (stereo not drawn) [Compound 107, 3-(4,6-difluoro-1-oxo-5-(1-(pyridin-3-ylmethyl)piperidin-4-yl)isoindolin-2-yl)piperidine-2,6-dione] was tested. Which DC50 [1] did it give?
The DC50 was 2.1 nM.

What about the Dmax [1] of the same molecule?
Its Dmax is 89.7%.

What about the DC50 (Helios) of the same molecule?
The DC50 was at least 10000 nM.

How did the DC50 [1] turn out when `CN(C)CCCOc1ccc(CN2CCC(c3c(F)cc4c(c3F)CN(C3CCC(=O)NC3=O)C4=O)CC2)cc1` (stereo not drawn) [Compound 108, 3-(5-(1-(4-(3-(dimethylamino)propoxy)benzyl)piperidin-4-yl)-4,6-difluoro-1-oxoisoindolin-2-yl)piperidine-2,6-dione] was run?
Its DC50 is 3.66 nM.

What about the Dmax [1] of the same molecule?
The Dmax was 83.1%.

What about the DC50 (Helios) of the same molecule?
Its DC50 is at least 10000 nM.

With `CS(=O)(=O)Nc1cccc(CN2CCC(c3c(F)cc4c(c3F)CN(C3CCC(=O)NC3=O)C4=O)CC2)c1` (stereo not drawn) [Compound 109, N-(3-((4-(2-(2,6-dioxopiperidin-3-yl)-4,6-difluoro-1-oxoisoindolin-5-yl)piperidin-1-yl)methyl)phenyl) methanesulfonamide] as the molecule, how does the DC50 [1] read?
Its DC50 is 2.28 nM.

And the Dmax [1]?
Its Dmax is 91.5%.

What about the DC50 (Helios) of the same molecule?
Its DC50 is at least 10000 nM.

Which DC50 [1] does the source give for `CN(C)c1ccc(CN2CCC(c3c(F)cc4c(c3F)CN(C3CCC(=O)NC3=O)C4=O)CC2)cc1` (stereo not drawn) [Compound 110, 3-(5-(1-(4-(dimethylamino)benzyl)piperidin-4-yl)-4,6-difluoro-1-oxoisoindolin-2-yl)piperidine-2,6-dione] here?
Its DC50 is 1.12 nM.

And the Dmax [1]?
Its Dmax is 90.5%.

And the DC50 (Helios)?
The DC50 was at least 10000 nM.

`Cc1ccc(CCN2CCC(c3c(F)cc4c(c3F)CN(C3CCC(=O)NC3=O)C4=O)CC2)cc1` (stereo not drawn) [Compound 111, 3-(4,6-difluoro-5-(1-(4-methylphenethyl)piperidin-4-yl)-1-oxoisoindolin-2-yl)piperidine-2,6-dione] was tested. Which DC50 [1] did it give?
The DC50 was 7.45 nM.

And the Dmax [1]?
The Dmax was 82.7%.

What about the DC50 (Helios) of the same molecule?
Its DC50 is at least 10000 nM.

`O=C1CCC(N2Cc3c(cc(F)c(C4CCN(CC5CCCC5)CC4)c3F)C2=O)C(=O)N1` (stereo not drawn) [Compound 112, 3-(5-(1-(cyclopentylmethyl)piperidin-4-yl)-4,6-difluoro-1-oxoisoindolin-2-yl)piperidine-2,6-dione] was tested. Which DC50 [1] did it give?
Its DC50 is 3.23 nM.

What about the Dmax [1] of the same molecule?
The Dmax was 84.6%.

What about the DC50 (Helios) of the same molecule?
Its DC50 is at least 10000 nM.

For `CC(C)CCN1CCC(c2c(F)cc3c(c2F)CN(C2CCC(=O)NC2=O)C3=O)CC1` (stereo not drawn) [Compound 113, 3-(4,6-difluoro-5-(1-isopentylpiperidin-4-yl)-1-oxoisoindolin-2-yl)piperidine-2,6-dione], which DC50 [1] is on record?
The DC50 was 2.73 nM.

What about the Dmax [1] of the same molecule?
The Dmax was 82.5%.

And the DC50 (Helios)?
Its DC50 is at least 10000 nM.

With `O=C1CCC(N2Cc3c(cc(F)c(C4CCN(CCC(F)(F)F)CC4)c3F)C2=O)C(=O)N1` (stereo not drawn) [Compound 114, 3-(4,6-difluoro-1-oxo-5-(1-(3,3,3-trifluoropropyl)piperidin-4-yl)isoindolin-2-yl)piperidine-2,6-dione] as the molecule, how does the DC50 [1] read?
Its DC50 is 10.8 nM.

And the Dmax [1]?
The Dmax was 74.8%.

What about the DC50 (Helios) of the same molecule?
Its DC50 is at least 10000 nM.
